Measurements reported in ChEMBL document CHEMBL4251601 (Eur J Med Chem, 2018).

Legend:
[1] = AUC (0 to 24 hrs) in Sprague-Dawley rat at 2 mg/kg, iv administered as single dose by LC-MS/MS analysis; format: ADME, organism-based; set-up: dose 2 mg/kg, time < 24 hr, route intravenous; settings: in vivo
[2] = Volume of distribution at steady state in Sprague-Dawley rat at 2 mg/kg, iv administered as single dose by LC-MS/MS analysis; format: ADME, organism-based; settings: in vivo, read-out: Vdss
[3] = test system: Rattus norvegicus; assay: (§1) AUC (0 to infinity) in Sprague-Dawley rat at 2 mg/kg, iv administered as single dose by LC-MS/MS analysis; format: ADME, organism-based; set-up: dose 2 mg/kg, route intravenous, time infinity; settings: in vivo
[4] = Cmax in Sprague-Dawley rat at 5 mg/kg, po administered as single dose by LC-MS/MS analysis; format: ADME, organism-based; set-up: dose 5 mg/kg, route oral; settings: in vivo
[5] = Half life in Sprague-Dawley rat at 2 mg/kg, iv administered as single dose by LC-MS/MS analysis; format: ADME, organism-based; settings: in vivo
[6] = species on record: Homo sapiens; assay: Selectivity ratio of IC50 for CDK1/Cyclin-A2 (unknown origin) to IC50 for CDK6/Cyclin-D3 (unknown origin)
[7] = test system: Rattus norvegicus; assay: (§2) AUC (0 to infinity) in Sprague-Dawley rat at 5 mg/kg, po administered as single dose by LC-MS/MS analysis; format: ADME, organism-based; set-up: dose 5 mg/kg, route oral, time infinity; settings: in vivo
[8] = test system: Rattus norvegicus; assay: (§3) Oral bioavailability in Sprague-Dawley rat at 5 mg/kg administered as single dose by LC-MS/MS analysis; format: ADME, organism-based; settings: in vivo
[9] = Clearance in Sprague-Dawley rat at 2 mg/kg, iv administered as single dose by LC-MS/MS analysis; format: ADME, organism-based; settings: in vivo
[10] = AUC (0 to 24 hrs) in Sprague-Dawley rat at 5 mg/kg, po administered as single dose by LC-MS/MS analysis; format: ADME, organism-based; set-up: time < 24 hr, dose 5 mg/kg, route oral; settings: in vivo
[11] = Unbound brain to plasma concentration ratio in CD-1 nude mouse at 100 mg/kg, po; format: ADME, organism-based; settings: read-out: K(p,uu,brain)
[12] = test system: U-87 MG; assay: Antiproliferative activity against human U87MG cells after 72 hrs by DAPI staining based assay; format: functional, cell-based, U-87MG ATCC
[13] = Unbound brain to plasma concentration ratio in mouse at 30 mg/kg, po; format: ADME, organism-based; settings: read-out: K(p,uu,brain)
[14] = Half life in CD-1 mouse liver microsomes at 10 uM preincubated for 5 mins followed by NADP addition by LC-MS/MS analysis; format: ADME, microsome
[15] = target: CDK6/cyclin D3 (Homo sapiens, UniProt Q00534); assay: Inhibition of CDK6/Cyclin-D3 (unknown origin) using histoneH1 as substrate after 90 mins by ADP-Glo assay; format: protein-complex assay
Sequence of CDK6/cyclin D3 (P30281 whole entry): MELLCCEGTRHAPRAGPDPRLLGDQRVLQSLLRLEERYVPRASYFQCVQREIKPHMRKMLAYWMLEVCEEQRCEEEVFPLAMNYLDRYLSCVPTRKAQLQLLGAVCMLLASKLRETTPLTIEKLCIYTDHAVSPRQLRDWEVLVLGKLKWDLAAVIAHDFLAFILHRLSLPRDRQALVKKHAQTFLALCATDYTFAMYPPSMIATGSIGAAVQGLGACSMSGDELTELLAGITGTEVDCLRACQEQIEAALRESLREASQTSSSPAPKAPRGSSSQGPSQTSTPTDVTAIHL
Sequence of CDK6/cyclin D3 (Q00534 whole entry): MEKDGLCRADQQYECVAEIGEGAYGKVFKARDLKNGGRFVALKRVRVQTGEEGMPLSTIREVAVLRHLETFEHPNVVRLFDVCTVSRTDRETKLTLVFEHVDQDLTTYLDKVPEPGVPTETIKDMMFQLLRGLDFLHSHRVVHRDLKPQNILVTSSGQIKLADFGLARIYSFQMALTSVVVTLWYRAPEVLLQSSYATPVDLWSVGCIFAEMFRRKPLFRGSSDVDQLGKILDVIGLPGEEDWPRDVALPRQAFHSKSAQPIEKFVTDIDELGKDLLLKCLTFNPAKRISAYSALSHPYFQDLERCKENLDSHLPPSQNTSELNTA

[16] = as §1; format: ADME, organism-based; set-up: dose 2 mg/kg, route intravenous, time infinity; settings: Sprague-Dawley, in vivo
[17] = Stability in CD-1 mouse liver microsomes assessed as parent compound remaining at 10 uM measured after 60 mins in absence of NADPH-regenerating system by LC-MS/MS analysis; format: ADME, microsome; settings: read-out: Stability
[18] = Stability in CD-1 mouse liver microsomes assessed as parent compound remaining at 10 uM preincubated for 5 mins followed by NADP addition measured after 60 mins by LC-MS/MS analysis; format: ADME, microsome; settings: read-out: Stability
[19] = target: Cyclin-dependent kinase 4/cyclin D1 (Homo sapiens, UniProt P11802); assay: Inhibition of CDK4/Cyclin-D1 (unknown origin) using histone-H1 as substrate after 90 mins by ADP-Glo assay; format: protein-complex assay
Sequence of Cyclin-dependent kinase 4/cyclin D1 (P11802 whole entry): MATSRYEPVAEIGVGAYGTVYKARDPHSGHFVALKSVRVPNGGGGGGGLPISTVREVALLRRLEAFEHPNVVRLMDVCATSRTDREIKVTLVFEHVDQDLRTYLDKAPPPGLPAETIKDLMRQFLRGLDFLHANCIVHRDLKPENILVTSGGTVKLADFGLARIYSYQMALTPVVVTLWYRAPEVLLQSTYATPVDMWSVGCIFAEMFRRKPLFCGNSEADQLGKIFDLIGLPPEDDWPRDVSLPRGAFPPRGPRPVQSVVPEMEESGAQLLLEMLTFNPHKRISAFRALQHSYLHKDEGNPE
Sequence of Cyclin-dependent kinase 4/cyclin D1 (P24385 whole entry, further chain): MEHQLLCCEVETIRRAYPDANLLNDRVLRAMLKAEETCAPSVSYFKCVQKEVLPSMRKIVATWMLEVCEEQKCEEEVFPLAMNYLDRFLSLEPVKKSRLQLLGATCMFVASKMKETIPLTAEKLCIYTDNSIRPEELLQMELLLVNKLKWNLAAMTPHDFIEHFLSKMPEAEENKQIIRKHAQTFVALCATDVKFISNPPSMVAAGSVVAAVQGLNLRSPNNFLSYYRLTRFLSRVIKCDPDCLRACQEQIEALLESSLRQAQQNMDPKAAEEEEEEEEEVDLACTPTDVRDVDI

[20] = as §3; format: ADME, organism-based; settings: Sprague-Dawley, in vivo
[21] = Intrinsic clearance in CD-1 mouse liver microsomes at 10 uM preincubated for 5 mins followed by NADP addition by LC-MS/MS analysis; format: ADME, microsome; settings: read-out: CLH
[22] = Half life in Sprague-Dawley rat at 5 mg/kg, po administered as single dose by LC-MS/MS analysis; format: ADME, organism-based; settings: in vivo
[23] = as §2; format: ADME, organism-based; set-up: dose 5 mg/kg, route oral, time infinity; settings: Sprague-Dawley, in vivo
[24] = Unbound brain to plasma concentration ratio in mouse at 1 mg/kg, iv after 5 mins; format: ADME, organism-based; settings: read-out: K(p,uu,brain)
[25] = target: CDK1/Cyclin A (Homo sapiens, UniProt P06493); assay: Inhibition of CDK1/Cyclin-A2 (unknown origin) using histone-H1 as substrate after 90 mins by ADP-Glo assay; format: protein-complex assay
Sequence of CDK1/Cyclin A (P06493 whole entry): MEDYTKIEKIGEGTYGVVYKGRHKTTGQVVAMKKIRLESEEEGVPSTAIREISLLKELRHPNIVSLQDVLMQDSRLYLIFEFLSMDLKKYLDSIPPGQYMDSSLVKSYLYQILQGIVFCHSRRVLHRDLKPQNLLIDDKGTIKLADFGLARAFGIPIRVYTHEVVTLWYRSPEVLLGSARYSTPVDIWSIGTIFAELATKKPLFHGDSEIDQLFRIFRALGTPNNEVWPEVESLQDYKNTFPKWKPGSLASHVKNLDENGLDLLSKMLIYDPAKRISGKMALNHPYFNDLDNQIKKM
Sequence of CDK1/Cyclin A (P20248 whole entry, further chain): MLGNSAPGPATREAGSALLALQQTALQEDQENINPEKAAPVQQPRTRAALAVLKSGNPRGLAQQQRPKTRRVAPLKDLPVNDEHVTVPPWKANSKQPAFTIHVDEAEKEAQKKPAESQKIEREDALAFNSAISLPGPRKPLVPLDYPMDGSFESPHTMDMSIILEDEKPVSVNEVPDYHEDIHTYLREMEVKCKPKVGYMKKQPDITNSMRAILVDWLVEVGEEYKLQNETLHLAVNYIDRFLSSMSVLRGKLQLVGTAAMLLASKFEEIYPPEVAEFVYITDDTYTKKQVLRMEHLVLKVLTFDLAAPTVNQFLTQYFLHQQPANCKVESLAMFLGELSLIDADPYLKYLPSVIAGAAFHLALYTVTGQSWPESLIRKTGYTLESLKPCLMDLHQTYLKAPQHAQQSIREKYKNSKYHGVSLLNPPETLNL

Compound: CCN1CCN(c2ccc(Nc3ncc(F)c(-c4ccc5c(c4)C4(CCCC4)C(C)=N5)n3)nc2)CC1
- AUC(0-t) at 24 h [1]: 1900 ng·h/mL
- Vd [2]: 7.1 L/kg
- AUC [3]: 2000 ng·h/mL
- Cmax [4]: 99.9 ng/mL
- half-life [5]: 6.1 h
- Ratio IC50 [6]: 18
- AUC [7]: 3651 ng·h/mL
- F [8]: 25%
- clearance [9]: 16.9 mL/min/kg
- AUC(0-t) at 24 h [10]: 1200 ng·h/mL

Compound: CN(C)C(=O)c1cc2cnc(Nc3ccc(N4CCNCC4)cn3)nc2n1C1CCCC1 [RIBOCICLIB]
- Kp uu [11]: 0.12

Compound: CCN1CCN(Cc2ccc(Nc3ncc(F)c(-c4cc(F)c5nc(C)n(C(C)C)c5c4)n3)nc2)CC1 [ABEMACICLIB]
- IC50 [12]: 48.1 nM
- Kp uu [13]: 0.03

Compound: CC1=Nc2c(F)cc(-c3nc(Nc4ccc(N5CCNCC5)cn4)ncc3F)cc2C12CCCC2
- half-life at 10 µM [14]: 0.47 h
- AUC(0-t) at 24 h [1]: 949 ng·h/mL
- Vd [2]: 17.2 L/kg
- IC50 [15]: 6 nM
- AUC(0-inf) [16]: 1000 ng·h/mL
- Cmax [4]: 56.6 ng/mL
- remaining at 1 h, 10 µM [17]: 94.4%
- remaining at 1 h, 10 µM [18]: 24%
- half-life [5]: 5.8 h
- Ratio IC50 [6]: 25
- IC50 [19]: 8 nM
- bioavailability [20]: 28%
- clearance [9]: 34.7 mL/min/kg
- AUC(0-t) at 24 h [10]: 671 ng·h/mL
- microsomal CLint at 10 µM [21]: 49.2 µL/min/mg

Compound: CCN1CCN(Cc2ccc(Nc3ncc(F)c(-c4cc(F)c5c(c4)C4(CCCC4)C(C)=N5)n3)nc2)CC1
- half-life at 10 µM [14]: 0.135 h
- AUC(0-t) at 24 h [1]: 670 ng·h/mL
- Vd [2]: 16.7 L/kg
- IC50 [15]: 2 nM
- AUC(0-inf) [16]: 686 ng·h/mL
- Cmax [4]: 77.1 ng/mL
- remaining at 1 h, 10 µM [17]: 81.1%
- remaining at 1 h, 10 µM [18]: 1%
- half-life [5]: 4.6 h
- half-life [22]: 3.6 h
- AUC(0-inf) [23]: 827 ng·h/mL
- IC50 [19]: 12 nM
- bioavailability [20]: 48%
- clearance [9]: 48.9 mL/min/kg
- AUC(0-t) at 24 h [10]: 813 ng·h/mL
- microsomal CLint at 10 µM [21]: 171 µL/min/mg

Compound: CC(=O)c1c(C)c2cnc(Nc3ccc(N4CCNCC4)cn3)nc2n(C2CCCC2)c1=O [PALBOCICLIB]
- Kp uu at 5 min [24]: 0.01

Compound: CCN1CCN(Cc2ccc(Nc3ncc(F)c(-c4cc(F)c5c(c4)C(C)(CC)C(C)=N5)n3)nc2)CC1 (centres undefined)
- AUC(0-t) at 24 h [1]: 685 ng·h/mL
- Vd [2]: 25.1 L/kg
- IC50 [15]: 26 nM
- AUC(0-inf) [16]: 696 ng·h/mL
- Cmax [4]: 58.5 ng/mL
- half-life [5]: 5.3 h
- Ratio IC50 [6]: 37
- IC50 [25]: 966 nM
- half-life [22]: 4.7 h
- AUC(0-inf) [23]: 412 ng·h/mL
- IC50 [19]: 33 nM
- bioavailability [20]: 23%
- clearance [9]: 50.7 mL/min/kg
- AUC(0-t) at 24 h [10]: 403 ng·h/mL
